From US20020090341A1, “Method” (NYCOMED IMAGING AS, priority 1997, published 2002)

Tested on: normal and reperfused infarcted myocardium
Assay: inversion recovery echo planar imaging T1 measurement after coronary occlusion 60 min and reperfusion 120 min
Description: Sprague-Dawley rats (female, 270-320 g, n=24) were subjected to occlusion of the anterior branch of the left main coronary artery for 60 minutes, followed by reperfusion for 120 minutes before injecting the test agent. A catheter was placed in the tail vein for administration of contrast media. Animals were connected to an ECG patient monitor and placed in the magnet such that the heart of each rat was at or near ioscenter. Magnetic field was optimized for a central slab of 6 mm thickness, within which the 2 mm section to be imaged was located. Inversion and slice select pulses were calibrated. Inversion recovery echo planar imaging was then used to measure baseline T1 values for myocardium and left ventricle chamber blood.
MnDPDP was then administered at doses of 25, 50 and 100 μmole/kg by intravenous injection of 2.5, 5 and 10 ml/kg, respectively, of the test solution which contained a 10 mM solution of MnDPDP. These injections were followed by a flush of physiologic saline solution (0.9%) such that the combined volumes of test agent and saline flush was 11 ml/kg. All injected solutions were warmed before being administered and were injected slowly over 1.5 mins. T1 values were remeasured at 5 minute intervals during the first 60 minutes after injection. Occasional animals were imaged at 90 minutes for T1 determination (EPI) and for visual inspection of contrast on STIR (short TI inversion recovery) prepared spin echo images.
After imaging was completed, animals were sacrificed by an overdose of pentobarbital and the heart was excised, sectioned and stained in triphenyltetrazolium chloride solution to define the infarcted region.

[1] = 25 μmol/kg, 5 min after injection
[2] = 25 μmol/kg, 10 min after injection
[3] = 25 μmol/kg, 15 min after injection
[4] = 25 μmol/kg, 20 min after injection
[5] = 25 μmol/kg, 25 min after injection
[6] = 25 μmol/kg, 30 min after injection
[7] = 25 μmol/kg, 35 min after injection
[8] = 25 μmol/kg, 40 min after injection
[9] = 25 μmol/kg, 45 min after injection
[10] = 25 μmol/kg, 50 min after injection
[11] = 25 μmol/kg, 55 min after injection
[12] = 25 μmol/kg, 60 min after injection
[13] = 50 μmol/kg, 5 min after injection
[14] = 50 μmol/kg, 10 min after injection
[15] = 50 μmol/kg, 15 min after injection
[16] = 50 μmol/kg, 20 min after injection
[17] = 50 μmol/kg, 25 min after injection
[18] = 50 μmol/kg, 30 min after injection
[19] = 50 μmol/kg, 35 min after injection
[20] = 50 μmol/kg, 40 min after injection
[21] = 50 μmol/kg, 45 min after injection
[22] = 50 μmol/kg, 50 min after injection
[23] = 50 μmol/kg, 55 min after injection
[24] = 50 μmol/kg, 60 min after injection
[25] = 100 μmol/kg, 5 min after injection
[26] = 100 μmol/kg, 10 min after injection
[27] = 100 μmol/kg, 15 min after injection
[28] = 100 μmol/kg, 20 min after injection
[29] = 100 μmol/kg, 25 min after injection
[30] = 100 μmol/kg, 30 min after injection
[31] = 100 μmol/kg, 35 min after injection
[32] = 100 μmol/kg, 40 min after injection
[33] = 100 μmol/kg, 45 min after injection
[34] = 100 μmol/kg, 50 min after injection
[35] = 100 μmol/kg, 55 min after injection
[36] = 100 μmol/kg, 60 min after injection

SMILES: Cc1ncc(COP(=O)(O)O)c(CN(CCN(CC(=O)[O-])Cc2c(COP(=O)(O)O)cnc(C)c2O)CC(=O)[O-])c1O.[Mn+2] [MnDPDP, manganese (II) chelate of N,N′-bis-(pyridoxal-5-phosphate)-ethylenediamine-N,N′-diacetic acid]
- T1 Blood [1]: 1.04 ± 0.02 s
- T1 Infarct [1]: 0.76 ± 0.02 s
- T1 normal [1]: 0.77 ± 0.01 s
- T1 Blood [2]: 1.11 ± 0.02 s
- T1 Infarct [2]: 0.82 ± 0.02 s
- T1 normal [2]: 0.76 ± 0.01 s
- T1 Blood [3]: 1.14 ± 0.02 s
- T1 Infarct [3]: 0.86 ± 0.03 s
- T1 normal [3]: 0.75 ± 0.01 s
- T1 Blood [4]: 1.16 ± 0.02 s
- T1 Infarct [4]: 0.90 ± 0.03 s
- T1 normal [4]: 0.73 ± 0.01 s
- T1 Blood [5]: 1.18 ± 0.02 s
- T1 Infarct [5]: 0.92 ± 0.03 s
- T1 normal [5]: 0.72 ± 0.01 s
- T1 Blood [6]: 1.18 ± 0.02 s
- T1 Infarct [6]: 0.93 ± 0.03 s
- T1 normal [6]: 0.70 ± 0.01 s
- T1 Blood [7]: 1.19 ± 0.02 s
- T1 Infarct [7]: 0.95 ± 0.03 s
- T1 normal [7]: 0.70 ± 0.01 s
- T1 Blood [8]: 1.20 ± 0.02 s
- T1 Infarct [8]: 0.98 ± 0.03 s
- T1 normal [8]: 0.69 ± 0.01 s
- T1 Blood [9]: 1.21 ± 0.02 s
- T1 Infarct [9]: 0.99 ± 0.03 s
- T1 normal [9]: 0.68 ± 0.01 s
- T1 Blood [10]: 1.22 ± 0.02 s
- T1 Infarct [10]: 1.00 ± 0.03 s
- T1 normal [10]: 0.67 ± 0.01 s
- T1 Blood [11]: 1.22 ± 0.02 s
- T1 Infarct [11]: 1.01 ± 0.03 s
- T1 normal [11]: 0.67 ± 0.01 s
- T1 Blood [12]: 1.23 ± 0.02 s
- T1 Infarct [12]: 1.02 ± 0.03 s
- T1 normal [12]: 0.65 ± 0.01 s
- T1 Blood [13]: 0.84 ± 0.02 s
- T1 Infarct [13]: 0.59 ± 0.01 s
- T1 normal [13]: 0.69 ± 0.01 s
- T1 Blood [14]: 0.93 ± 0.03 s
- T1 Infarct [14]: 0.65 ± 0.01 s
- T1 normal [14]: 0.68 ± 0.01 s
- T1 Blood [15]: 0.97 ± 0.02 s
- T1 Infarct [15]: 0.69 ± 0.01 s
- T1 normal [15]: 0.67 ± 0.01 s
- T1 Blood [16]: 1.00 ± 0.02 s
- T1 Infarct [16]: 0.73 ± 0.01 s
- T1 normal [16]: 0.67 ± 0.01 s
- T1 Blood [17]: 1.02 ± 0.03 s
- T1 Infarct [17]: 0.76 ± 0.02 s
- T1 normal [17]: 0.64 ± 0.01 s
- T1 Blood [18]: 1.04 ± 0.03 s
- T1 Infarct [18]: 0.80 ± 0.01 s
- T1 normal [18]: 0.63 ± 0.01 s
- T1 Blood [19]: 1.05 ± 0.03 s
- T1 Infarct [19]: 0.82 ± 0.02 s
- T1 normal [19]: 0.62 ± 0.01 s
- T1 Blood [20]: 1.06 ± 0.03 s
- T1 Infarct [20]: 0.85 ± 0.03 s
- T1 normal [20]: 0.60 ± 0.01 s
- T1 Blood [21]: 1.08 ± 0.03 s
- T1 Infarct [21]: 0.87 ± 0.02 s
- T1 normal [21]: 0.60 ± 0.01 s
- T1 Blood [22]: 1.08 ± 0.03 s
- T1 Infarct [22]: 0.88 ± 0.02 s
- T1 normal [22]: 0.59 ± 0.01 s
- T1 Blood [23]: 1.08 ± 0.03 s
- T1 Infarct [23]: 0.89 ± 0.03 s
- T1 normal [23]: 0.58 ± 0.01 s
- T1 Blood [24]: 1.10 ± 0.03 s
- T1 Infarct [24]: 0.91 ± 0.03 s
- T1 normal [24]: 0.58 ± 0.01 s
- T1 Blood [25]: 0.63 ± 0.03 s
- T1 Infarct [25]: 0.46 ± 0.02 s
- T1 normal [25]: 0.59 ± 0.01 s
- T1 Blood [26]: 0.74 ± 0.03 s
- T1 Infarct [26]: 0.47 ± 0.02 s
- T1 normal [26]: 0.59 ± 0.01 s
- T1 Blood [27]: 0.80 ± 0.02 s
- T1 Infarct [27]: 0.51 ± 0.02 s
- T1 normal [27]: 0.58 ± 0.01 s
- T1 Blood [28]: 0.83 ± 0.02 s
- T1 Infarct [28]: 0.55 ± 0.03 s
- T1 normal [28]: 0.57 ± 0.01 s
- T1 Blood [29]: 0.87 ± 0.02 s
- T1 Infarct [29]: 0.58 ± 0.03 s
- T1 normal [29]: 0.57 ± 0.01 s
- T1 Blood [30]: 0.89 ± 0.02 s
- T1 Infarct [30]: 0.60 ± 0.03 s
- T1 normal [30]: 0.55 ± 0.01 s
- T1 Blood [31]: 0.91 ± 0.03 s
- T1 Infarct [31]: 0.61 ± 0.03 s
- T1 normal [31]: 0.54 ± 0.01 s
- T1 Blood [32]: 0.92 ± 0.03 s
- T1 Infarct [32]: 0.63 ± 0.03 s
- T1 normal [32]: 0.54 ± 0.01 s
- T1 Blood [33]: 0.93 ± 0.03 s
- T1 Infarct [33]: 0.65 ± 0.03 s
- T1 normal [33]: 0.53 ± 0.01 s
- T1 Blood [34]: 0.94 ± 0.03 s
- T1 Infarct [34]: 0.66 ± 0.03 s
- T1 normal [34]: 0.53 ± 0.01 s
- T1 Blood [35]: 0.97 ± 0.02 s
- T1 Infarct [35]: 0.69 ± 0.03 s
- T1 normal [35]: 0.52 ± 0.01 s
- T1 Blood [36]: 0.97 ± 0.03 s
- T1 Infarct [36]: 0.69 ± 0.03 s
- T1 normal [36]: 0.52 ± 0.01 s
- slow E2 component (blood pool clearance): ~0.01 per min
- E1, bi-exponential fit of ΔR1 clearance (dose 25, ROI blood): 0.21 min⁻¹
- E2, bi-exponential fit of ΔR1 clearance (dose 25, ROI blood): 0.011 ± 0.001 min⁻¹
- E1, bi-exponential fit of ΔR1 clearance (dose 25, ROI infarct): 0.15 min⁻¹
- E2, bi-exponential fit of ΔR1 clearance (dose 25, ROI infarct): 0.015 ± 0.001 min⁻¹
- intercept, linear fit - increase in normal myocardium (dose 25, ROI normal): 0.187
- slope, linear fit - increase in normal myocardium (dose 25, ROI normal): 0.0043 min⁻¹
- E1, bi-exponential fit of ΔR1 clearance (dose 50, ROI blood): 0.15 min⁻¹
- E2, bi-exponential fit of ΔR1 clearance (dose 50, ROI blood): 0.009 ± 0.001 min⁻¹
- E1, bi-exponential fit of ΔR1 clearance (dose 50, ROI infarct): 0.058 min⁻¹
- E2, bi-exponential fit of ΔR1 clearance (dose 50, ROI infarct): 0.005 ± 0.003 min⁻¹
- intercept, linear fit - increase in normal myocardium (dose 50, ROI normal): 0.294
- slope, linear fit - increase in normal myocardium (dose 50, ROI normal): 0.0056 min⁻¹
- E1, bi-exponential fit of ΔR1 clearance (dose 100, ROI blood): 0.18 min⁻¹
- E2, bi-exponential fit of ΔR1 clearance (dose 100, ROI blood): 0.011 ± 0.001 min⁻¹
- E1, bi-exponential fit of ΔR1 clearance (dose 100, ROI infarct): 0.11 min⁻¹
- E2, bi-exponential fit of ΔR1 clearance (dose 100, ROI infarct): 0.010 ± 0.003 min⁻¹
- intercept, linear fit - increase in normal myocardium (dose 100, ROI normal): 0.523
- slope, linear fit - increase in normal myocardium (dose 100, ROI normal): 0.0050 min⁻¹
- plasma half life (equivalent to E2 component): ~1.17 h
- clearance or accumulation of test agent (over 60 minutes after injection, 25, 50 and 100 μmole/kg): cleared from both blood and infarcted myocardium but accumulated in uninfarcted myocardium
